Blank lines part the entries; values can stand above or below the compound they belong to.
Key:
[1] = molecular target: Serine/threonine-protein kinase PAK 4 (Homo sapiens, UniProt O96013); assay: Selectivity interaction (Kinase panel (literature)) EUB0001199aCl PAK4; conditions: at 1 µM
[2] = molecular target: Serine/threonine-protein kinase ICK (Homo sapiens, UniProt Q9UPZ9); assay: Selectivity interaction (Kinase panel (Invitrogen, enzymatic assay)) EUB0000162b ICK
[3] = molecular target: Casein kinase I isoform gamma-1 (Homo sapiens) (UniProt Q9HCP0); assay: Selectivity interaction (KinomeScan (DiscoverX)) EUB0001049a CSNK1G1; conditions: at 1 µM
Sequence of Casein kinase I isoform gamma-1 (Homo sapiens) (Q9HCP0 whole entry, looked up, canonical isoform): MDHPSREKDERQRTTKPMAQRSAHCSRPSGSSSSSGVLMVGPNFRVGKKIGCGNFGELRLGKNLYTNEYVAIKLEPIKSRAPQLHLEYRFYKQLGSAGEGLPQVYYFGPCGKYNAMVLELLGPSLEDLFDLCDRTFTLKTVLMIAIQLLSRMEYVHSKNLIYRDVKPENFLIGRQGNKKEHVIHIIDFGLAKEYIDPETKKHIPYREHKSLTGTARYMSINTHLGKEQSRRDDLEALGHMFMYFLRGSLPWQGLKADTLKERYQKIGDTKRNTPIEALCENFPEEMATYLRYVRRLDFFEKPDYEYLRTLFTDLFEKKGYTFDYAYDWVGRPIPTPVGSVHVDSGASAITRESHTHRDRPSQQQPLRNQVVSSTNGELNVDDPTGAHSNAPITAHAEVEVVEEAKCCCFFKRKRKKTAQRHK

[4] = molecular target: T1, Serine/threonine-protein kinase Nek10 (Homo sapiens) (UniProt Q6ZWH5); assay: Selectivity interaction (KinomeScan (DiscoverX)) EUB0001049a NEK10; conditions: at 1 µM
T1 sequence (whole entry): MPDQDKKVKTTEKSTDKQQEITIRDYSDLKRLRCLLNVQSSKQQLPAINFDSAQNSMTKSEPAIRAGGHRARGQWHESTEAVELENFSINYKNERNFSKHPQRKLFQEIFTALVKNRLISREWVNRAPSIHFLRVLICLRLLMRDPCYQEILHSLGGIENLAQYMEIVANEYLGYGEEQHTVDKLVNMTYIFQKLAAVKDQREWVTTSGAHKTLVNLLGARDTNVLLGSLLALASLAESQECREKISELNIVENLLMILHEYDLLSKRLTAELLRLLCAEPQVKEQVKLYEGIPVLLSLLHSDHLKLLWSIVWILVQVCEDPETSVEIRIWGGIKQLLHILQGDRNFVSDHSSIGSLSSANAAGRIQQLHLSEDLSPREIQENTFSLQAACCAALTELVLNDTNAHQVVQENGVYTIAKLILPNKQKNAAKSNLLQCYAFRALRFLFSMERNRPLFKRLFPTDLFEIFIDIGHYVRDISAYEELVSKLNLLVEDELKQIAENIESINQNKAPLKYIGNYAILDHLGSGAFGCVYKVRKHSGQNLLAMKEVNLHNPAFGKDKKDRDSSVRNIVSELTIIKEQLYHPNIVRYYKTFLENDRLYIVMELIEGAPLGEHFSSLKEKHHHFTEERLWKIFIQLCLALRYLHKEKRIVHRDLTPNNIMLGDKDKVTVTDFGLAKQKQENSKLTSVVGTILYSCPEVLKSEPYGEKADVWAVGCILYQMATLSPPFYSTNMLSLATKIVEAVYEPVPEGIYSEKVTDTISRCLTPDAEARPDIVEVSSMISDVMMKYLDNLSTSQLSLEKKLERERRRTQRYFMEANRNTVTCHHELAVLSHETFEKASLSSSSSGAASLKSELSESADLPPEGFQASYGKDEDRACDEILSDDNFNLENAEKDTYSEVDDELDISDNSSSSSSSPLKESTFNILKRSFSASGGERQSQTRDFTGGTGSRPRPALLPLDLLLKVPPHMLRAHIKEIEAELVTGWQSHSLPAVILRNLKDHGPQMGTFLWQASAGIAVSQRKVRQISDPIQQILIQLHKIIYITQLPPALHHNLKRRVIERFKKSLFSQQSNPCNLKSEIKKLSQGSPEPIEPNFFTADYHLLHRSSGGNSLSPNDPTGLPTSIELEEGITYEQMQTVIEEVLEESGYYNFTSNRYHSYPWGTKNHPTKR

[5] = molecular target: Casein kinase II subunit alpha (Homo sapiens, UniProt P68400); assay: Selectivity interaction (Millipore kinase profiler) EUB0000124b CSNK2A1; conditions: at 10 µM
Sequence of Casein kinase II subunit alpha (P68400 whole entry, looked up): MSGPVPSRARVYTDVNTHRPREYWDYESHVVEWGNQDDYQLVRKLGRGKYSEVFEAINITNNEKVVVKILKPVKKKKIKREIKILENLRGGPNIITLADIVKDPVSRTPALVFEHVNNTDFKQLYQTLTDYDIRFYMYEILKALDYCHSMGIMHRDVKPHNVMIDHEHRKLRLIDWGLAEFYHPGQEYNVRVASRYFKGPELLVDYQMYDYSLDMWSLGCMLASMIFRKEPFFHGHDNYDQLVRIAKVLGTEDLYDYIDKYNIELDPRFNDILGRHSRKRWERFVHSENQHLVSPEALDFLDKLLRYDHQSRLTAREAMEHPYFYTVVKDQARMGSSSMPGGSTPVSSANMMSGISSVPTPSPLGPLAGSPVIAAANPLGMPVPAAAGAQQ

[6] = molecular target: Tyrosine-protein kinase Lyn (Homo sapiens, UniProt P07948); assay: Selectivity interaction (KinomeScan (DiscoverX)) EUB0001079a LYN; conditions: at 1 µM
Sequence of Tyrosine-protein kinase Lyn (P07948 2-512 limits assumed): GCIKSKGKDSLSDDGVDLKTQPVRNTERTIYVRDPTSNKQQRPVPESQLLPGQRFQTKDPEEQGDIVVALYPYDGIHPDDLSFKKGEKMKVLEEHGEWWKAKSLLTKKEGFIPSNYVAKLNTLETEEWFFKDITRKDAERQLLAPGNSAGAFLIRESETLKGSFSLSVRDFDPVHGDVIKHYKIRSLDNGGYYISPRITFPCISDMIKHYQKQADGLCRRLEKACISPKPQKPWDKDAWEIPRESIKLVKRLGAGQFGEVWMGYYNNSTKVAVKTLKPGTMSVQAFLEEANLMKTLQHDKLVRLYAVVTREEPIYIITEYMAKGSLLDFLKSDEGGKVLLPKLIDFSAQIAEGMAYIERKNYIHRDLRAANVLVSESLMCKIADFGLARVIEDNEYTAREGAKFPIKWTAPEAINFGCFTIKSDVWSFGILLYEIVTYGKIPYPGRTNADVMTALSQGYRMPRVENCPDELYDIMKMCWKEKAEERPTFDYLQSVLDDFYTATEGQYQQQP

[7] = molecular target: Serine/threonine-protein kinase N1 (Homo sapiens, UniProt Q16512); assay: Selectivity interaction (KinomeScan (DiscoverX)) EUB0000092b PKN1; conditions: at 10 µM
Sequence of Serine/threonine-protein kinase N1 (Q16512 2-942 limits assumed): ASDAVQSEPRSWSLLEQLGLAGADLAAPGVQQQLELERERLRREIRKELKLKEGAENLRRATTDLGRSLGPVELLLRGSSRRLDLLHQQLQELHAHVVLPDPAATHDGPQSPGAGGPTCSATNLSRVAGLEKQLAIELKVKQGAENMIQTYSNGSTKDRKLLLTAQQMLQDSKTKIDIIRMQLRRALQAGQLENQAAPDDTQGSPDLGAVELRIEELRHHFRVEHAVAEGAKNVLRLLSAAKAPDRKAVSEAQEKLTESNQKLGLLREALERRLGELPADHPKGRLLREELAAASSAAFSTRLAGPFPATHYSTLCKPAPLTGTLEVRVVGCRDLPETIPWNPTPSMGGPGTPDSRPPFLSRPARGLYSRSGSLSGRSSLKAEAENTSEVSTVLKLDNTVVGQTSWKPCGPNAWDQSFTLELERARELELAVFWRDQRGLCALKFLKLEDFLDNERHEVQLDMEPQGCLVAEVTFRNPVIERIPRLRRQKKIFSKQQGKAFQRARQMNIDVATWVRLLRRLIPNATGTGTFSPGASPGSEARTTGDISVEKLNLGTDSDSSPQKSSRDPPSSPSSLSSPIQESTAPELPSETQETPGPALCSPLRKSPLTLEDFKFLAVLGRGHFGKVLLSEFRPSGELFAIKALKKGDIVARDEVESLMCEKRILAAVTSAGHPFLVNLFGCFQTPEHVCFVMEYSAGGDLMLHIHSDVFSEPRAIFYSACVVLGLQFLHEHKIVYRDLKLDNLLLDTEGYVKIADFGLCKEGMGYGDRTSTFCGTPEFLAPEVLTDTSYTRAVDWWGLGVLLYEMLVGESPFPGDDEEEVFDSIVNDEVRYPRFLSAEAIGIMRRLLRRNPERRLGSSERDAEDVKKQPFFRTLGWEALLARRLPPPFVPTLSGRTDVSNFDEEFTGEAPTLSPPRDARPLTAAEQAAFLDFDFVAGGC

[8] = molecular target: T2, Mitogen-activated protein kinase kinase kinase 2 (Homo sapiens) (UniProt Q9Y2U5); assay: Selectivity interaction (ActivX KiNativ screen (ex vivo kinase selectivity in human PBMCs)) EUB0001619a MAP3K2; format: cell-based; conditions: PBMC, at 1 µM
T2 sequence (whole entry): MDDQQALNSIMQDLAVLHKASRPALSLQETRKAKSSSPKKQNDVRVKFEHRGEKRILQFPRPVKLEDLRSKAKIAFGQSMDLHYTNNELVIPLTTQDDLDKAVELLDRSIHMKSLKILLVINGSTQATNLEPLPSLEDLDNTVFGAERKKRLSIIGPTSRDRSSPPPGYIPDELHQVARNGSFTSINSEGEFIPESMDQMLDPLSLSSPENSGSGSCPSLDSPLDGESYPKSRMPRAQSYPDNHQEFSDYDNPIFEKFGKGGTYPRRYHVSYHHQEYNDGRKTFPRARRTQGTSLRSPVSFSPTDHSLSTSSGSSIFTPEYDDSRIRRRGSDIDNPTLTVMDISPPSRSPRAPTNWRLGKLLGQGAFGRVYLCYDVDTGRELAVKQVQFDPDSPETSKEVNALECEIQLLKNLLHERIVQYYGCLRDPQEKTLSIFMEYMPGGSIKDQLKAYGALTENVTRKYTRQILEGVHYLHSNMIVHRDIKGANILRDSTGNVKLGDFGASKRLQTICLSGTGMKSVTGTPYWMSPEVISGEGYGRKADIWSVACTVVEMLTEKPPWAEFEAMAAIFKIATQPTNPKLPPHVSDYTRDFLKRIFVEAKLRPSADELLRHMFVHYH

Sequence of Serine/threonine-protein kinase ICK (Q9UPZ9 whole entry, canonical isoform): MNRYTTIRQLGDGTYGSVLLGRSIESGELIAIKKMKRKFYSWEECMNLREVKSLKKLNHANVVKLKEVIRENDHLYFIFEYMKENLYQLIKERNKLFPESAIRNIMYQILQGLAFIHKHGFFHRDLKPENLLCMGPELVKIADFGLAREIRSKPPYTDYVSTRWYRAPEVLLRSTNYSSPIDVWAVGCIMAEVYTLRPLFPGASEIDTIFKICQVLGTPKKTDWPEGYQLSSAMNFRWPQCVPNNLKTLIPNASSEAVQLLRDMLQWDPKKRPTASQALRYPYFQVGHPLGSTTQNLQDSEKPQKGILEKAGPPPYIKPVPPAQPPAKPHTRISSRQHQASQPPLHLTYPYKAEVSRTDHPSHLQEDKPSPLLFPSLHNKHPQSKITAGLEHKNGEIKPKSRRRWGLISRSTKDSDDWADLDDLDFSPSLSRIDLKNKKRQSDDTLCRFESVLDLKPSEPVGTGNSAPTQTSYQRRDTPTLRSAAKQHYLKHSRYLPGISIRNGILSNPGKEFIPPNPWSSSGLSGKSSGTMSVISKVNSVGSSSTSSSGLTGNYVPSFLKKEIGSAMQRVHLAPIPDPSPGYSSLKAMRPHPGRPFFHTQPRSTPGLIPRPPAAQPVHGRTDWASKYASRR
Sequence of Serine/threonine-protein kinase PAK 4 (O96013 whole entry, looked up): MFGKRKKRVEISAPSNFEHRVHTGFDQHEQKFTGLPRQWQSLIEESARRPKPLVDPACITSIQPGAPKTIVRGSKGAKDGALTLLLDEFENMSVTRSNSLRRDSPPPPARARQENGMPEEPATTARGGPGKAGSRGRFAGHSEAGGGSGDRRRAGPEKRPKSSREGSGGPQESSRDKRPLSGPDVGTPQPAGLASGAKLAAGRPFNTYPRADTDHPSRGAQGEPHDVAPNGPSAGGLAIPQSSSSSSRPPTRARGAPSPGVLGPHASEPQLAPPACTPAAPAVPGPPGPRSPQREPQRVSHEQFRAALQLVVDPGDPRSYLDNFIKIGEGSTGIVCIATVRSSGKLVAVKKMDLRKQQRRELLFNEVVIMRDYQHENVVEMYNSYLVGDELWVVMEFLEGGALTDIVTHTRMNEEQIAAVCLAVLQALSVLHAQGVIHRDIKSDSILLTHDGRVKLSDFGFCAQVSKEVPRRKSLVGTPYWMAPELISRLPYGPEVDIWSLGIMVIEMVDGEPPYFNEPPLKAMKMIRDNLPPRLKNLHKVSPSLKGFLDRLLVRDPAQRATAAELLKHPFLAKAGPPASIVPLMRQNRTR

% of inhibition [1]: 7%
SMILES: CN1Cc2nccc(-c3cn(C)nc3-c3ccc(F)cc3)c2C1=O

IC50 [2]: 2.39 µM
SMILES: CN(C)C(=O)Cn1cc(-c2ccc(-c3cncc4ccccc34)cc2)cn1

SMILES: COc1cc(Nc2nc(C)cc(-c3cnn4nc(OC)ccc34)n2)cc(C(F)(F)F)c1
% of control [3]: 100%
% of control [4]: 100%

% of control [5]: 101%
SMILES: CC(=O)Nc1cccc(-n2c(=O)n(C3CC3)c(=O)c3c(Nc4ccc(I)cc4F)n(C)c(=O)c(C)c32)c1

SMILES: Nc1cnc(N2CCc3cc(S(=O)(=O)Nc4c(F)cc(Cl)cc4F)cc(N4CCCC4=O)c32)nc1 [TP-020n]
% of control [6]: 88%

SMILES: CCC(=O)N1CCN(c2ccc(-n3c(=O)ccc4cnc5ccc(-c6cnc7ccccc7c6)cc5c43)cc2C(F)(F)F)CC1
% of control [7]: 92%

SMILES: N#Cc1cccc(-c2c[nH]c3ncnc(N4CCOCC4)c23)c1
% of inhibition [8]: 22%
